Assay results from US11952364B2, “TRK inhibitors useful as anticancer drugs” (TYLIGAND BIOSCIENCE (SHANGHAI) LIMITED, priority 2018, dated 2024).
Where two headings read alike, the source gives them in different places.

Test system: KM12 cells
Assay: Proliferation of KM12 cells (CellTiter-Glo)
Type: cell-based, human
Source text: KM12 is a human colon cancer cell line in which NTRK1 is highly expressed, and gene fusion occurs with TPM3 to form TPM3-NTRK1. • [Test method]: Promega's CellTiter-Glo® Luminescent Cell Viability Assay kit was used to evaluate the inhibitory activity of the compounds on the proliferation of KM12 cells. • [Instrument]: Spectramax M3 multifunctional microplate reader from Molecular Devices. • [Test materials]: KM12 cell line (ATCC, item number CRL-12496), 96-well transparent flat-bottomed black-walled cell culture plate (Corning, item number #3603), RPMI-1640 media (GE, cat #SH30027.01), Fetal Bovine Serum FBS (Thermo Fisher, cat #10099-141), CellTiter-Glo® Luminescent Cell Viability Assay Kit (Promega, cat #G7572), PBS (Solarbio, cat #P1020), Trypsin (Thermo Fisher, cat #25200072), DMSO (Sigma, cat #D2650). • [Experimental procedure]: When resuscitating KM12 cells, the freezing tube was quickly shaken in a 37° C. water bath to melt within 1 minute. The thawed cell suspension was mixed uniformly with RPMI1640 medium containing 10% FBS, centrifuged at 1000 rpm for 5 minutes, and the supernatant discarded. 5 mL of complete medium (RPMI1640 medium with 10% FBS) was taken to resuspend the cell pellets, charged into a cell culture flask with a bottom area of 25 cm^2, and incubated in a cell incubator at 37° C., 95% humidity and 5% CO2. Cells were allowed to passage when the cell confluence rate reached about 80%. For cell passage, the old medium was discarded, and the cells were washed twice with PBS, and 0.5 mL trypsin was added to digest the cells. Upon dispersing into single cells and exfoliating from the bottom of the cell culture flask, 4.5 mL of new complete medium was added to terminate the digestion. After pipetting the cell suspension evenly, 1/5 of the cell suspension was kept and added with 4 mL of new complete medium, and after pipetting evenly, the cell flask was placed in the cell incubator for further culturing. Cell plating was performed when the cell confluence rate reached about 80% again. For cell plating, 1/5 of the cell suspension was kept for further culturing as in the cell passage method, and the remaining 4/5 of the cell suspension was placed in a 15 mL centrifuge tube, detected for cell viability by Trypan blue exclusion method to ensure that cell viability was above 90%. A cell suspension with a density of 3.33×10^4 viable cells/mL was prepared with complete medium, and 90 μL of such cell suspension was added to a 96-well cell culture plate to obtain a cell density of 3000 viable cells/mL in the cell culture plate. A control group containing no cells, no compound and only complete medium (i.e. culture medium control) and a control group containing no compound but containing cells (i.e. cell control) were set. The cell plate was placed in a cell incubator overnight.
The 10 mM compound stock solution in DMSO was first serially diluted with DMSO at a dilution factor of 3.16 times, to obtain 9 concentrations, and the 10th concentration was set as DMSO control without compound. Then, PBS was used to dilute the DMSO solutions of compounds of different concentrations, at a dilution factor of 100 times, so that the DMSO concentration in the compound solution of each concentration was 1%. Finally, 10 μL of each of the above solutions was added to the corresponding cell culture plate, so that the initial compound concentration was 10 μM, with the remaining concentrations being successively diluted at a dilution factor of 3.16 times, and the DMSO content in the cell culture plate was 0.1%.
The cell plate was placed in a cell incubator and cultured for 72 hours. For endpoint detection, the CellTiter-Glo reagent was melted, and the cell plate was moved to room temperature to equilibrate for 30 minutes, added with 100 μL of CellTiter-Glo for each well, and shaken on an orbital shaker for 5 minutes to fully lyse the cells. […]

[1] = Homo sapiens, KM12, 72 h, Table 1, 72 hours, read-out: KM-12, IC50
[2] = Homo sapiens, KM12, Table 1-3, separate test, read-out: KM-12, IC50
[3] = Homo sapiens, KM12, Table 1-2, separate test, read-out: KM-12, IC50
[4] = Homo sapiens, KM12, Table 9, read-out: KM12 cell proliferation inhibitory activity (IC50)
[5] = Homo sapiens, KM12, Table 1-1, separate test, read-out: KM-12, IC50

`O=C(Nc1cnn2ccc(N3CCC[C@@H]3c3cc(F)ccc3F)nc12)N1CC[C@H](O)C1` [LOXO-101, Larotrectinib, reference compound] was tested, and the IC50 [1] was 8.3 nM.
`CCn1ncc2cc(Oc3ccc(NC(=O)c4ccc(C)n(-c5ccc(F)cc5)c4=O)cc3F)c(-c3cn[nH]c3)cc21` [Example 3, N-(3-fluoro-4-(1-ethyl-6-(1H-pyrazol-4-yl)-1H-indazol-5-yloxy)phenyl)-1-(4-fluorophenyl)-6-methyl-2-oxo-1,2-dihydmpyridine-3-carboxamide] showed an IC50 [1] of 16.7 nM.
Work on `Cn1ncc2cc(Oc3ccc(NC(=O)c4ccc(C(F)(F)F)n(-c5ccc(F)cc5)c4=O)cc3F)c(-c3cn[nH]c3)cc21` [Example 1, N-(3-fluoro-4-(1-methyl-6-(1H-pyrazol-4-yl)-1H-indazol-5-yloxy)phenyl)-1-(4-fluorophenyl)-6-trifluoromethyl-2-oxo-1,2-dihydmpyridine-3-carboxamide monomethanesulfonate] yielded an IC50 [1] of 15.6 nM.
Molecule `CCn1ncc2cc(Oc3ccc(NC(=O)c4ccc(OC(C)C)n(-c5ccc(F)cc5)c4=O)cc3F)c(-c3cn[nH]c3)cc21` [Example 26, N-(3-fluoro-4-(1-ethyl-6-(1H-pyrazol-4-yl)-1H-indazol-5-yloxy)phenyl)-1-(4-fluorophenyl)-6-isopropoxy-2-oxo-1,2-dihydropyridine-3-carboxamide] has an IC50 [2] of 18 nM.
In the case of `Cn1ncc2cc(Oc3ccc(NC(=O)c4ccc(OC5CC5)n(-c5ccc(F)cc5)c4=O)cc3F)c(-c3cn[nH]c3)cc21` [Example 15, N-(3-fluoro-4-(1-methyl-6-(1H-pyrazol-4-yl)-1H-indazol-5-yloxy)phenyl)-1-(4-fluorophenyl)-6-cyclopropoxy-2-oxo-1,2-dihydropyridine-3-carboxamide], the IC50 [3] is reported as 17 nM.
`Cc1ccc(C(=O)Nc2ccc(Oc3cc4cnn(C(C)C)c4cc3-c3cn[nH]c3)c(F)c2)c(=O)n1-c1ccc(F)cc1` [Example 4, N-(3-fluoro-4-(1-isopropyl-6-(1H-pyrazol-4-yl)-1H-indazol-5-yloxy)phenyl)-1-(4-fluorophenyl)-6-methyl-2-oxo-1,2-dihydmpyridine-3-carboxamide] gave an IC50 [1] of 31 nM.
Work on `CCOc1ccc(C(=O)Nc2ccc(Oc3cc4cnn(C)c4cc3-c3cn[nH]c3)c(F)c2)c(=O)n1-c1ccc(F)cc1` [Example 14, N-(3-fluoro-4-(1-methyl-6-(1H-pyrazol-4-yl)-1H-indazol-5-yloxy)phenyl)-1-(4-fluorophenyl)-6-ethoxy-2-oxo-12-dihydropyridine-3-carboxamide] yielded an IC50 [3] of 24 nM.
Work on `CC(C)c1ccc(C(=O)Nc2ccc(Oc3cc4cnn(C)c4cc3-c3cn[nH]c3)c(F)c2)c(=O)n1-c1ccc(F)cc1` [Example 6, N-(3-fluoro-4-(1-methyl-6-(1H-pyrazol-4-yl)-1H-indazol-5-yloxy)phenyl)-1-(4-fluorophenyl)-6-isopropyl-2-oxo-1,2-dihydropyridine-3-carboxamide] yielded an IC50 [1] of 6.3 nM.
In the case of `Cn1ncc2cc(Oc3ccc(NC(=O)c4ccc(C5CC5)n(-c5ccc(F)cc5)c4=O)cc3F)c(-c3cn[nH]c3)cc21` [Example 2, N-(3-fluoro-4-(1-methyl-6-(1H-pyrazol-4-yl)-1H-indazol-5-yloxy)phenyl)-1-(4-fluorophenyl)-6-cyclopropyl-2-oxo-1,2-dihydmpyridine-3-carboxamide], the IC50 [1] is reported as 9.1 nM.
In the case of `Cc1ccc(C(=O)Nc2ccc(Oc3cc4cnn5c4c(c3-c3cn[nH]c3)CC5)c(F)c2)c(=O)n1-c1ccc(F)cc1` [Example 31, N-(4-((5-(1H-pyrazol-4-yl)-6,7-dihydropyrrolo[3,2,1-hi]-indazol-4-yl)oxy)-3-fluorophenyl)-1-(4-fluorophenyl)-6-methyl-2-oxo-1,2-dihydropyridine-3-carboxamide], the IC50 [4] is reported as 71 nM.
`Cc1ccc(C(=O)Nc2ccc(Oc3cc4cnn(C)c4cc3-c3cn[nH]c3)c(F)c2)c(=O)n1-c1ccc(F)cc1` [Merestinib, reference compound] was tested, and the IC50 [1] was 8.7 nM, the IC50 [5] was 33 nM and the IC50 [3] was 59 nM. It also gave an IC50 [2] of 27 nM.
For `CCOc1ccc(C(=O)Nc2ccc(Oc3cc4cnn5c4c(c3-c3cn[nH]c3)CC5)c(F)c2)c(=O)n1-c1ccc(F)cc1` [Example 32, N-(4-((5-(1H-pyrazol-4-yl)-6,7-dihydropyrrolo[3,2,1-hi]-indazol-4-yl)oxy)-3-fluorophenyl)-6-ethoxy-1-(4-fluorophenyl)-2-oxo-12-dihydropyridine-3-carboxamide], the IC50 [4] was 67 nM.
With `CCn1ncc2cc(Oc3ccc(NC(=O)c4ccc(OC)n(-c5ccc(F)cc5)c4=O)cc3F)c(-c3cn[nH]c3)cc21` [Example 23, N-(3-fluoro-4-(1-ethyl-6-(1H-pyrazol-4-yl)-1H-indazol-5-yloxy)phenyl)-1-(4-fluorophenyl)-6-methoxy-2-oxo-1,2-dihydropyridine-3-carboxamide] the IC50 [5] was 32 nM.
For `CC(C)Oc1ccc(C(=O)Nc2ccc(Oc3cc4cnn5c4c(c3-c3cn[nH]c3)CC5)c(F)c2)c(=O)n1-c1ccc(F)cc1` [Example 34, N-(4-((5-(1H-pyrazol-4-yl)-6,7-dihydropyrrolo[3,2,1-hi]-indazol-4-yl)oxy)-3-fluorophenyl)-1-(4-fluorophenyl)-6-isopropoxy-2-oxo-12-dihydropyrndine-3-carboxamide], the IC50 [4] was 37 nM.
For `CSc1ccc(C(=O)Nc2ccc(Oc3cc4cnn(C)c4cc3-c3cn[nH]c3)c(F)c2)c(=O)n1-c1ccc(F)cc1` [Example 11, N-(3-fluoro-4-(1-methyl-6-(1H-pyrazol-4-yl)-1H-indazol-5-yloxy)phenyl)-1-(4-fluorophenyl)-6-methylthio-2-oxo-1,2-dihydropyidine-3-carboxamide], the IC50 [3] was 35 nM.
Work on `CCOc1ccc(C(=O)Nc2ccc(Oc3cc4cnn(CC)c4cc3-c3cn[nH]c3)c(F)c2)c(=O)n1-c1ccc(F)cc1` [Example 24, N-(3-fluoro-4-(1-ethyl-6-(1H-pyrazol-4-yl)-1H-indazol-5-yloxy)phenyl)-1-(4-fluorophenyl)-6-ethoxy-2-oxo-12-dihydropyridine-3-carboxamide] yielded an IC50 (Table 1-3, separate test, read-out: KM-12, IC50) of 23 nM.
Work on `CCc1ccc(C(=O)Nc2ccc(Oc3cc4cnn(CC)c4cc3-c3cn[nH]c3)c(F)c2)c(=O)n1-c1ccc(F)cc1` [Example 18, N-(3-fluoro-4-(1-ethyl-6-(1H-pyrazol-4-yl)-1H-indazol-5-yloxy)phenyl)-1-(4-fluorophenyl)-6-ethyl-2-oxo-1,2-dihydropyridine-3-carboxamide] yielded an IC50 [5] of 32 nM.
`COc1ccc(C(=O)Nc2ccc(Oc3cc4cnn(C)c4cc3-c3cn[nH]c3)c(F)c2)c(=O)n1-c1ccc(F)cc1` [Example 12, N-(3-fluoro-4-(1-methyl-6-(1H-pyrazol-4-yl)-1H-indazol-5-yloxy)phenyl)-1-(4-fluorophenyl)-6-methoxy-2-oxo-1,2-dihydropyridine-3-carboxamide] was tested, and the IC50 [5] was 16 nM.
Work on `CCc1ccc(C(=O)Nc2ccc(Oc3cc4cnn(C)c4cc3-c3cn[nH]c3)c(F)c2)c(=O)n1-c1ccc(F)cc1` [Example 5, N-(3-fluoro-4-(1-methyl-6-(1H-pyrazol-4-yl)-1H-indazol-5-yloxy)phenyl)-1-(4-fluorophenyl)-6-ethyl-2-oxo-1,2-dihydropyridine-3-carboxamide] yielded an IC50 [1] of 5.1 nM.
In the case of `COc1ccc(C(=O)Nc2ccc(Oc3cc4cnn5c4c(c3-c3cn[nH]c3)CC5)c(F)c2)c(=O)n1-c1ccc(F)cc1` [Example 28, N-(4-((5-(1H-pyrazol-4-yl)-6,7-dihydropyrrolo[3,2,1-hi]-indazol-4-yl)oxy)-3-fluorophenyl)-1-(4-fluorophenyl)-6-methoxy-2-oxo-1,2-dihydropyidine-3-carboxamide], the IC50 [4] is reported as 56 nM.
